Consider 5 compounds from patent publication US8952159B2, “Method for the production of amorphous rifaximin” (priority 2009, dated 2015).

This data set is described as follows: Comparative test of solubility in water of different forms of rifaximin (spectrophotometric, absorbance at 450.50 nm). The data set is classed as physicochemical. The note with it: suspension in deionized water, constant stirring; for Solubility in water: 25° C. The protocol: The solubility in water of different forms of rifaximin was evaluated by means of spectrophotometric method, by performing the analyses on a Lambda10 (Perkin Elmer) apparatus. The tests were performed at room temperature in demineralized water according to the following methodology. 1 g of commercial rifaximin (identified as form γ by X diffractometry) was dried in thermogravimetric apparatus at 105° C. until constant weight. 50.3 mg of the dried powder were weighed and brought in solution with deionized water in 2-L calibrated flask (solution 1). Under these conditions rifaximin was fully dissolved. On a portion of the obtained solution the spectral scanning was performed in the range of wavelengths comprised between 190 and 800 nm, by using as white deionized water. The obtained absorption spectrum points out an isolated maximum at 450.50 nm and such wavelength was used for the analytical measures. The calibration straight line was obtained by dilution of portions of the solution 1, thus obtaining the solution 2 (dilution 1:2.5), the solution 3 (1:10), the solution 4 (1:20) and the solution 5 (1:50). The straight line resulted to follow the Lambert-Beer law, showing linearity in the concentration range of the five measured reference solutions. For the tests for comparing the solubilities of the different forms, the absorbance of samples obtained from rifaximin suspensions in water excess subjected to constant stirring at 25° C. was measured. After drying at 105° C. until weight constancy, quantities properly weighed of the samples under examination (for a value of about 15 mg) were placed in becker under magnetic stirring, at 25° C. with 80 ml of deionized water. Measures on different samples obtained according to the methodologies reported in the examples 8 and 13 (defined full amorphous), on amorphous ones obtained as described in the examples 1 and 5 (with two halos) and compared to those of commercially available rifaximin, verified as form γ. In different periods of time comprised between 0.5 and 180 minutes, about 2-ml collections were performed, placed in test tube, having the prudence of preventing the collection of the suspended solid by means of filtration with filters for HPLC with porosity 0.2 μm. 0.3 ml of the collected solution were read at the UV by measuring the absorbance 450.50 nm. The samples with higher concentration, with absorbances so as to fall out of the range of the calibration straight line, were diluted until going back to the calibration range. Each experimental point consisted in 3 measures, the values thereof, coincident within 5% of error, were mediated. The concentrations are expressed in grams/liter.

A word on the solubility: it is the concentration that dissolves in the medium under given conditions. Read a low solubility as a poorly soluble substance.

In brackets after ≈: the same amount, converted by molar mass.

Turning to `CO[C@H]1/C=C/O[C@@]2(C)Oc3c(C)c(O)c4c(O)c(c5c(nc6cc(C)ccn65)c4c3C2=O)NC(=O)/C(C)=C\C=C\[C@H](C)[C@H](O)[C@@H](C)[C@@H](O)[C@@H](C)[C@H](OC(C)=O)[C@@H]1C` [example 1, rifaximin], the Solubility in water (time 0.5 min) worked out at 0.00111 g/L (≈ 1.41 µM); the Solubility in water (time 2 min) was 0.0051 g/L (≈ 6.49 µM); the Solubility in water (time 5 min) was determined as 0.0069 g/L (≈ 8.78 µM); the Solubility in water (time 10 min) came to 0.014 g/L (≈ 17.8 µM); the Solubility in water (time 30 min) came out at 0.025 g/L (≈ 31.8 µM); the Solubility in water (time 60 min) amounted to 0.036 g/L (≈ 45.8 µM). For the same compound, the Solubility in water is 0.046 g/L (≈ 58.5 µM) (time 120 min) and 0.045 g/L (≈ 57.3 µM) (time 180 min).

Take `CO[C@H]1/C=C/O[C@@]2(C)Oc3c(C)c(O)c4c(O)c(c5c(nc6cc(C)ccn65)c4c3C2=O)NC(=O)/C(C)=C\C=C\[C@H](C)[C@H](O)[C@@H](C)[C@@H](O)[C@@H](C)[C@H](OC(C)=O)[C@@H]1C` [example 5, rifaximin]: the Solubility in water is, setting by setting: (time 5 min) 0.0071 g/L (≈ 9.03 µM); (time 10 min) 0.015 g/L (≈ 19.1 µM); (time 30 min) 0.027 g/L (≈ 34.4 µM); (time 60 min) 0.037 g/L (≈ 47.1 µM); (time 120 min) 0.044 g/L (≈ 56 µM); (time 180 min) 0.046 g/L (≈ 58.5 µM).

In turn, `CO[C@H]1/C=C/O[C@@]2(C)Oc3c(C)c(O)c4c(O)c(c5c(nc6cc(C)ccn65)c4c3C2=O)NC(=O)/C(C)=C\C=C\[C@H](C)[C@H](O)[C@@H](C)[C@@H](O)[C@@H](C)[C@H](OC(C)=O)[C@@H]1C` [example 8, rifaximin] registered a solubility at 120 min (deionized water, 25 °C, water, thermodynamic from solid, time 120 min) of 85 µg/mL (≈ 108 µM). Moreover, the Solubility in water reads like this: (time 0.5 min) 0.0033 g/L (≈ 4.2 µM); (time 2 min) 0.013 g/L (≈ 16.5 µM); (time 5 min) 0.029 g/L (≈ 36.9 µM); (time 10 min) 0.051 g/L (≈ 64.9 µM); (time 30 min) 0.076 g/L (≈ 96.7 µM); (time 60 min) 0.082 g/L (≈ 104 µM). Under “time 180 min”, this compound showed a Solubility in water of 0.0864 g/L (≈ 110 µM).

Take `CO[C@H]1/C=C/O[C@@]2(C)Oc3c(C)c(O)c4c(O)c(c5c(nc6cc(C)ccn65)c4c3C2=O)NC(=O)/C(C)=C\C=C\[C@H](C)[C@H](O)[C@@H](C)[C@@H](O)[C@@H](C)[C@H](OC(C)=O)[C@@H]1C` [example 13, rifaximin]: the Solubility in water reads like this: (time 5 min) 0.031 g/L (≈ 39.4 µM); (time 10 min) 0.055 g/L (≈ 70 µM); (time 30 min) 0.072 g/L (≈ 91.6 µM); (time 60 min) 0.081 g/L (≈ 103 µM); (time 120 min) 0.086 g/L (≈ 109 µM); (time 180 min) 0.089 g/L (≈ 113 µM).

The compound `CO[C@H]1/C=C/O[C@@]2(C)Oc3c(C)c(O)c4c(O)c(c5c(nc6cc(C)ccn65)c4c3C2=O)NC(=O)/C(C)=C\C=C\[C@H](C)[C@H](O)[C@@H](C)[C@@H](O)[C@@H](C)[C@H](OC(C)=O)[C@@H]1C` [form γ, rifaximin] registered a solubility at 1 min (deionized water, 25 °C, water, thermodynamic from solid, time 1 min) of 5.4 µg/mL (≈ 6.87 µM). Also, the Solubility in water was 0.0027 g/L (≈ 3.44 µM) (time 0.5 min); 0.0059 g/L (≈ 7.51 µM) (time 2 min); 0.0082 g/L (≈ 10.4 µM) (time 5 min); 0.015 g/L (≈ 19.1 µM) (time 10 min); 0.023 g/L (≈ 29.3 µM) (time 30 min); 0.037 g/L (≈ 47.1 µM) (time 60 min). Further, the Solubility in water (time 120 min) was 0.043 g/L (≈ 54.7 µM) and the Solubility in water (time 180 min) was 0.042 g/L (≈ 53.4 µM).
